Assay [1] deals with T1, human recombinant BTK C481S protein (Homo sapiens, UniProt Q06187, C481S).
T1 construct: made in house
The experiment in a line: BTK C481S activity inhibition assay (HTRF in vitro kinase assay). The format is biochemical. Conditions: 35 μM ATP, 1.5 ng/μL BTK C481S. The procedure:
In vitro kinase assay was used to evaluate the effects of compounds of the present invention on BTK C481S activity (Table 1).
(§1) By using the homogeneous time-resolved fluorescence (HTRF) kinase detection kit (Cisbio, catalog number 62TK0PEC), the enzymatic activity of BTK C481S is determined by detecting the phosphorylation level of the substrate in the kinase reaction. The reaction buffer contains the enzyme reaction buffer (1×) from the kit, 5 mM MgCl2, 1 mM DTT, 10 nM SEB, and 0.01% Tween-20; the kinase reaction solution contains human recombinant BTK C481S protein (purified in-house) diluted to 1.5 ng/μL with the reaction buffer; the substrate reaction solution contains biotin-labeled tyrosine kinase substrate diluted to 0.5 μM with the reaction buffer and 35 μM ATP; the detection buffer contains Eu^3+-labeled cage antibody diluted to 0.05 ng/μL and streptavidin-labeled XL665 antibody diluted to 31.25 nM with the reaction buffer; the test compound is dissolved and diluted to 100 μM with DMSO, followed by a 4-fold serial dilution with DMSO to the lowest concentration of 6.1 nM and finally 40-time dilution with the reaction buffer for each concentration point. If the IC50 value of the compound is very low, the initial concentration of the compound is reduced.
(§2) Add 4 μL test compound solution and 2 μL kinase reaction solution to a 384-well detection plate (Corning, catalog number 3674), mix well and incubate at room temperature for 15 minutes; add 4 μL substrate reaction solution and incubate for 50 minutes; add 10 μL detection buffer, mix well and stand for 60 minutes; detect signal at 620 nm and 665 nm using an Envision plate reader (Perkin Elmer). The signal value (absorbance at 665 nm/absorbance at 620 nm) is positively correlated with the degree of phosphorylation of the substrate, thereby detecting the kinase activity of BTK C481S. In this experiment, the group without BTK is the negative control (100% inhibition) and the group with BTK C481 S but no compound is the positive control (0% inhibition). The inhibition curve is plotted and the corresponding IC50 value of the test compound is calculated using XLfit software (TD Business Solutions Ltd., UK).

Assay [2] concerns the target T2, human-derived recombinant BTK protein (Homo sapiens, UniProt Q06187).
T2 construct: purchased Carna Biosciences 08-180
The experiment in a line: BTK activity inhibition assay (HTRF in vitro kinase assay). The settings on record: 40 μM ATP, 0.2 ng/μL BTK. Type of assay: biochemical. As to the method:
In vitro kinase assay was used to evaluate the effects of compounds of the present invention on BTK activity (Table 1).
as §1, with “BTK” for “BTK C481S”, “SEB” for “SEB,”, “human-derived” for “human”, “(Carna Biosciences, Catalog No. 08-180)” for “(purified in-house)”, “0.2” for “1.5”, “40” for “35”
as §2, with “BTK.” for “BTK C481S.”, “BTK” for “BTK C481 S”, “(ID” for “(TD”

T1 sequence (Q06187 whole entry C481S): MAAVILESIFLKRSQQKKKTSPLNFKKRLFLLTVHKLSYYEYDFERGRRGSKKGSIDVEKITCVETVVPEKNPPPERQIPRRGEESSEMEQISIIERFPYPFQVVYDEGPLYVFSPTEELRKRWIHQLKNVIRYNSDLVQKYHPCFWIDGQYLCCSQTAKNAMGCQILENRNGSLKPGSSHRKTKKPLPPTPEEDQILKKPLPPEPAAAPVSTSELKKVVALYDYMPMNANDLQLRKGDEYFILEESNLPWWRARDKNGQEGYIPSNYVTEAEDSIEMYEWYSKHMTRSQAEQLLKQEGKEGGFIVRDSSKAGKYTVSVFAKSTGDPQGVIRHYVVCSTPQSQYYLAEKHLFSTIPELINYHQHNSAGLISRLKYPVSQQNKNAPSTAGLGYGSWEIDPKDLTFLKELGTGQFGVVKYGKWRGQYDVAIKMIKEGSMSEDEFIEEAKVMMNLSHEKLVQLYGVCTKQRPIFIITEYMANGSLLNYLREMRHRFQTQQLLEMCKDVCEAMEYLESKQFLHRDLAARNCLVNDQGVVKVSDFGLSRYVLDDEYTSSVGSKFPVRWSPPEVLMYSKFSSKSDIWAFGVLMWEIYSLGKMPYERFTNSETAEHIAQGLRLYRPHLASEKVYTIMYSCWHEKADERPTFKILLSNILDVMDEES
T2 sequence (Q06187 whole entry): as the sequence (Q06187 whole entry C481S) above, with S481C counted along it

For orientation: IC50 means the point on the concentration scale where inhibition reaches its midpoint. On to `COc1ccc(F)cc1C(=O)NCc1ccc(-c2nc([C@H]3CC[C@H](C(=O)O)CC3)n3ccnc(N)c23)cc1` [Compound 13, (1r,4r)-4-(8-amino-1-(4-((5-fluoro-2-methoxybenzamido)methyl)phenyl)imidazo[1,5-a]pyrazin-3-yl)cyclohexane-1-carboxylic acid], for which the values for the 50% inhibitory concentration (IC50) in assay [1] and in assay [2] were 0.8 nM and 1.4 nM, respectively.
Turning to `COc1ccc(F)cc1C(=O)NCc1ccc(-c2nc(C3CCCOC3)n3ccnc(N)c23)cc1` (stereo not shown) [Compound 21, N-(4-(8-amino-3-(tetrahydro-2H-pyran-3-yl)imidazo[1,5-a]pyrazin-1-yl)benzyl)-5-fluoro-2-methoxybenzamide], the figures for the IC50 in assay [1] and in assay [2] were 1.8 nM and 1.7 nM, respectively.
The like results for `COc1ccc(F)cc1C(=O)NCc1ccc(-c2nc(C34CCC(C(=O)O)(CC3)CC4)n3ccnc(N)c23)cc1` [Compound 34, 4-(8-amino-1-(4-((5-fluoro-2-methoxybenzamido)methyl)phenyl)imidazo[1,5-a]pyrazin-3-yl)bicyclo[2.2.2]octane-1-carboxylic acid] were, in that order, 1.5 nM and 0.9 nM.
With `COc1ccc(F)cc1C(=O)NCc1ccc(-c2nn([C@H]3CC[C@H](O)CC3)c3ccnc(N)c23)cc1` [Compound 4, N-(4-(4-amino-1-((1r,4r)-4-hydroxycyclohexyl)-1H-pyrazolo[4,3-c]pyridin-3-yl)benzyl)-5-fluoro-2-methoxybenzamide], the IC50 in assay [1] was determined as 3 nM; in assay [2], 2.3 nM.
For `COc1ccc(F)cc1C(=O)NCc1ccc(-c2nc([C@H]3CC[C@H](CO)CC3)n3ncnc(N)c23)cc1` [Compound 14, N-(4-(4-amino-7-((1r,4r)-4-(hydroxymethyl)cyclohexyl)imidazo[5,1-f][1,2,4]triazin-5-yl)benzyl)-5-fluoro-2-methoxybenzamide], in that order: 2.9 nM and 3.2 nM.
With `COc1ccc(F)cc1C(=O)NCc1ccc(-c2nc([C@H]3CC[C@H](CN)CC3)n3ccnc(N)c23)cc1` [Compound 7, N-(4-(8-amino-3-((1r,4r)-4-(aminomethyl)cyclohexyl)imidazo[1,5-a]pyrazin-1-yl)benzyl)-5-fluoro-2-methoxybenzamide], the results for the IC50 in assay [1] and in assay [2] were 1.7 nM and 3.4 nM, respectively.
On to `COc1ccccc1C(=O)NCc1ccc(-c2nc(C3CCC(CO)OC3)n3ccnc(N)c23)cc1F` (stereo not shown) [Compound 11, N-(4-(8-amino-3-(6-(hydroxymethyl)tetrahydro-2H-pyran-3-yl)imidazo[1,5-a]pyrazin-1-yl)-2-fluorobenzyl)-2-methoxybenzamide], for which the IC50 in assay [1] worked out at 3.9 nM; in assay [2], 20 nM.
In the case of `COc1ccc(F)cc1C(=O)NCc1ccc(-c2nc([C@H]3CC[C@H](CO)CC3)n3ccnc(N)c23)cc1` [Compound 5, N-(4-(8-amino-3-((1r,4r)-4-(hydroxymethyl)cyclohexyl)imidazo[1,5-a]pyrazin-1-yl)benzyl)-5-fluoro-2-methoxybenzamide], the values for the IC50 in assay [1] and in assay [2] were 2.6 nM and 4.6 nM, respectively.
For `COc1ccc(F)cc1C(=O)NCc1ccc(-c2nc(N3CCOCC3)n3ncnc(N)c23)cc1` [Compound 45, N-(4-(4-amino-7-morpholinoimidazo[5,1-f][1,2,4]triazin-5-yl)benzyl)-5-fluoro-2-methoxybenzamide], in that order: 2.6 nM and 9.4 nM.
For the molecule `COc1ccc(F)cc1C(=O)NCc1ccc(-c2nc(N3CCC(C)(C(=O)O)CC3)n3ccnc(N)c23)cc1` [Compound 27, 1-(8-amino-1-(4-((5-fluoro-2-methoxybenzamido)methyl)phenyl)imidazo[1,5-a]pyrazin-3-yl)-4-methylpiperidine-4-carboxylic acid], the IC50 in assay [1] amounted to 1.3 nM; in assay [2] it was 2.7 nM.
For the molecule `COc1ccc(F)cc1C(=O)NCc1ccc(-c2nc(N3CCC(CO)CC3)n3ccnc(N)c23)cc1` [Compound 6, N-(4-(8-amino-3-(4-(hydroxymethyl)piperidin-1-yl)imidazo[1,5-a]pyrazin-1-yl)benzyl)-5-fluoro-2-methoxybenzamide], the results for the IC50 in assay [1] and in assay [2] were 3.3 nM and 4.6 nM, respectively.
For `CNC(=O)[C@H]1CC[C@H](c2nc(-c3ccc(CNC(=O)c4cc(F)ccc4OC)cc3)c3c(N)nccn32)CC1` [Compound 23, N-(4-(8-amino-3-((1r,4r)-4-(methylcarbamoyl)cyclohexyl)imidazo[1,5-a]pyrazin-1-yl)benzyl)-5-fluoro-2-methoxybenzamide], in that order: 3 nM and 1 nM.
The like results for `COc1ccc(F)cc1C(=O)NCc1ccc(-c2nc(C34CCC(C(=O)O)(CC3)C4)n3ccnc(N)c23)cc1` [Compound 40, 4-(8-amino-1-(4-((5-fluoro-2-methoxybenzamido)methyl)phenyl)imidazo[1,5-a]pyrazin-3-yl)bicyclo[2.2.1]heptane-1-carboxylic acid] were, in that order, 1.1 nM and 0.4 nM.
For `COc1ccc(F)cc1C(=O)NCc1ccc(-c2nc([C@]3(C)CC[C@](C)(C(=O)OC)CC3)n3ccnc(N)c23)cc1` [Compound 39, methyl (1s,4s)-4-(8-amino-1-(4-((5-fluoro-2-methoxybenzamido)methyl)phenyl)imidazo[1,5-a]pyrazin-3-yl)-1,4-dimethylcyclohexane-1-carboxylate], the half-maximal inhibitory concentration (IC50) is 0.6 nM in assay [1] and 3.3 nM in assay [2].

The values above are taken from patent publication US20230192691A1, “HETEROCYCLIC COMPOUNDS AS BTK INHIBITORS” (Beijing InnoCare Pharma Tech Co., Ltd., priority 2020, published 2023).
